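48-hour exposure; five concentrations; linearly interpolated endpoints. The concentration for 50% growth inhibition is given as GI50. Definition used: TGI = concentration required for complete inhibition of growth.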
Experiments:
Assay in all cases: NCI-60 cell line screen, 48 h
[1] = test system: MDA-MB-231 breast
[2] = test system: MDA-N
[3] = test system: T-47D breast
[4] = test system: LXFL 529 NSCLC
[5] = test system: XF 498 CNS
[6] = test system: SN12K1 renal
[7] = test system: BT-549 breast
[8] = test system: RXF-631 renal

SMILES | TGI [1] [µM] | TGI [3] [µM] | TGI [5] [µM] | TGI [6] [µM] | GI50 [1] [µM] | GI50 [3] [µM] | TGI [7] [µM] | further results
O=C1OC(c2ccccc2Br)=N/C1=C/c1ccccc1 | 89.8 | > 100 |  |  |  |  |  | TGI [2]: 49.4 µM
O=C1CCC2COc3ccc(O)c1c32 (stereo not drawn) |  |  | > 100 |  |  |  |  | TGI [4]: > 100 µM
COc1nc(NC2OC(CO)C(O)C(O)C2O)c(N)c(=O)[nH]1 (stereo not drawn) |  |  | > 100 | > 100 |  |  |  | 
Nc1ncnc2c1ccn2-c1cccc(NC(=O)c2ccc(N3CCOCC3)c(C(F)(F)F)c2)c1 | 10.9 | 7.92 |  |  | 2.47 | 2.66 |  | 
COC(=O)Cc1c(C2C(CC(=O)OC)c3ccccc3N2C2OC(CO)C(O)C(O)C2O)[nH]c2ccccc12 (stereo not drawn) | > 100 |  |  |  |  |  | > 100 | TGI [2]: > 100 µM
CC(C)(C)CI |  |  | 34.9 |  |  |  |  | TGI [4]: > 100 µM; TGI [8]: > 100 µM
CC1OC(CO)(n2cnc3c(N)ncnc32)C(O)C1O (stereo not drawn) |  |  | > 100 | > 100 |  |  |  | 
CCCCCCCCCCCCCCCCCCOc1ccccc1COP(=O)(O)OOCC[N+](C)(C)C | 2.26 | 11.2 |  |  | 0.932 | 1.79 | 4.26 | GI50 [7]: 1.32 µM
C#CCNC(=O)CC[C@@H](C)[C@H]1CC[C@H]2[C@@H]3CC[C@@H]4CC(=O)CC[C@]4(C)[C@H]3CC[C@]12C | 38.9 | 68.2 |  |  | 16.5 | 8 | 36.7 | GI50 [7]: 13.7 µM
NC(CSCSCC(N)C(=O)O)C(=O)O (stereo not drawn) |  |  | > 225 | > 225 |  |  |  | 
